For nine molecules, IC50 results are on record in publication PMC9845116 (Saudi Pharmaceutical Journal : SPJ, 2022).

Like-named read-outs stand apart in the source and are kept apart here.

Common to all, as to assay type: cell-based
The test system of one experiment is A549. Description: MTT cell viability assay, A549. As to conditions: read-out: IC50(μM) A549.
The subject of another experiment is Hela. Description: MTT cell viability assay, Hela. As to conditions: 48 h. On the technique in general: Tetrazolium assays rely on reduction of a dye to a coloured formazan, in cell work by metabolically active cells.
The next experiment concerns MCF-7. In words: MTT cell viability assay, MCF-7.
Another experiment concerns HepG2. In words: MTT cell viability assay, HepG2. Particulars: read-out: IC50(μM) HepG2.
[1] abbreviates: Homo sapiens, HeLa, read-out: IC50(μM) Hela, MTT, 48 h, Hela.
Where [2] appears, read: Homo sapiens, MCF7, 48 h, read-out: IC50(μM) MCF-7, MTT, 48 h, MCF-7.
The mark [3] stands for this setting: read-out: IC50(μM) Hela, MTT, Hela.
Setting [4] is: read-out: IC50(μM) MCF-7, MTT, 48 h, MCF-7.

The IC50 is the midpoint of a concentration-inhibition curve. As for `COc1cc(OC)c(C(=O)/C=C/c2ccc(Br)cc2)c(OC)c1` [B4, (E)-3-(4-bromophenyl)-1-(2,4,6-trimethoxyphenyl)prop-2-en-1-one], the IC50 was 19.8 ± 0.98 µM with A549 (Homo sapiens, A549, 48 h); 11.8 ± 0.86 µM in the experiment on Hela (setting [1]); 12.8 ± 0.64 µM in the experiment on MCF-7 (setting [2]); 13 ± 0.74 µM in the experiment with HepG2 (Homo sapiens, HepG2, 48 h).
Turning to `COc1cc(OC)c(C(=O)/C=C/C2=CSC(Br)=CC2)c(OC)c1` [B6, (E)-3-(6-bromo-4H-thiopyran-3-yl)-1-(2,4,6-trimethoxyphenyl)prop-2-en-1-one], the IC50 with A549 (Homo sapiens, A549, 48 h) amounted to 31.3 ± 0.63 µM; with Hela (setting [1]), 18.9 ± 0.73 µM; in the experiment with MCF-7 (setting [2]), 26.3 ± 0.94 µM; with HepG2 (Homo sapiens, HepG2, 48 h), 19.5 ± 0.59 µM.
Take `COc1cc(OC)c(C(=O)/C=C/c2ccsc2)c(OC)c1` [B5, (E)-3-(thiophen-3-yl)-1-(2,4,6-trimethoxyphenyl)prop-2-en-1-one]: the IC50 was 46.9 ± 1.15 µM in the experiment with A549 (Homo sapiens, A549, 48 h); 37.2 ± 1.22 µM with Hela (setting [1]); 35.8 ± 1.35 µM in the experiment with MCF-7 (setting [2]); 19.9 ± 1.31 µM with HepG2 (Homo sapiens, HepG2, 48 h).
For `COc1cc(OC)c(C(=O)/C=C/c2ccc(OCC3CCCC3)cc2)c(OC)c1` [C2, (E)-3-(4-(cyclopentylmethoxy)phenyl)-1-(2,4,6-trimethoxyphenyl)prop-2-en-1-one], the IC50 is 73.6 ± 1.17 µM in the experiment with A549 (Homo sapiens, A549, 48 h); 22.6 ± 1.11 µM in the experiment on Hela (setting [1]); > 100 µM in the experiment on MCF-7 (setting [2]); > 100 µM in the experiment on HepG2 (Homo sapiens, HepG2, 48 h).
Regarding “(E)-3-(3,4-dimethoxyphenyl)-1-(2,4,6-trimethoxyphenyl)prop-2-en-1-one [A3]”, the IC50 is > 100 µM in the experiment with A549 (MTT, 48 h, A549); 71.5 ± 1.54 µM in the experiment on Hela (setting [3]); > 100 µM in the experiment on MCF-7 (setting [4]); 35.4 ± 1.37 µM with HepG2 (MTT, 48 h, HepG2).
For “(E)-3-(3,5-dimethoxyphenyl)-1-(2,4,6-trimethoxyphenyl)prop-2-en-1-one [A4]”, the IC50 in the experiment with A549 (MTT, 48 h, A549) was determined as 71.2 ± 1.56 µM; in the experiment with Hela (setting [3]), 32.3 ± 1.31 µM; in the experiment on MCF-7 (setting [4]) it was 32.4 ± 1.29 µM; with HepG2 (MTT, 48 h, HepG2), 33.4 ± 1.37 µM.
With `COc1cc(OC)c(C(=O)/C=C/c2ccccc2)c(OC)c1` [A7, (E)-3-phenyl-1-(2,4,6-trimethoxyphenyl)prop-2-en-1-one], the IC50 in the experiment on A549 (Homo sapiens, A549, 48 h) came out at 59.4 ± 1.72 µM; in the experiment on Hela (setting [1]) it was 46.5 ± 1.33 µM; in the experiment on MCF-7 (setting [2]), 57.8 ± 1.45 µM; with HepG2 (Homo sapiens, HepG2, 48 h), 47.1 ± 1.42 µM.
For the molecule `COc1cc(OC)c(C(=O)/C=C/c2cc3cc(F)ccc3[nH]c2=O)c(OC)c1` [B16, (E)-6-fluoro-3-(3-oxo-3-(2,4,6-trimethoxyphenyl)prop-1-en-1-yl)quinolin-2(1H)-one], the IC50 with A549 (Homo sapiens, A549, 48 h) came to 18.4 ± 0.65 µM; with Hela (setting [1]), 18.1 ± 1.04 µM; with MCF-7 (setting [2]), 12.6 ± 0.73 µM; in the experiment on HepG2 (Homo sapiens, HepG2, 48 h) it was 15.1 ± 0.62 µM.
`COc1cc(OC)c(C(=O)/C=C/c2cn(C)c3ccccc23)c(OC)c1` [B11, (E)-3-(1-methyl-1H-indol-3-yl)-1-(2,4,6-trimethoxyphenyl)prop-2-en-1-one]: the IC50 with A549 (Homo sapiens, A549, 48 h) was > 100 µM; in the experiment with Hela (setting [1]), > 100 µM; in the experiment with MCF-7 (setting [2]) it was > 100 µM; in the experiment with HepG2 (Homo sapiens, HepG2, 48 h), > 100 µM.
